The experiment has as its target T1, endogenous CETP from serum (Homo sapiens, UniProt P11597).
T1 construct: yielding a concentration of approximately 15 nM endogenous CETP in the assay; from tissue; host or cells: human serum
T1 sequence (P11597 18-493): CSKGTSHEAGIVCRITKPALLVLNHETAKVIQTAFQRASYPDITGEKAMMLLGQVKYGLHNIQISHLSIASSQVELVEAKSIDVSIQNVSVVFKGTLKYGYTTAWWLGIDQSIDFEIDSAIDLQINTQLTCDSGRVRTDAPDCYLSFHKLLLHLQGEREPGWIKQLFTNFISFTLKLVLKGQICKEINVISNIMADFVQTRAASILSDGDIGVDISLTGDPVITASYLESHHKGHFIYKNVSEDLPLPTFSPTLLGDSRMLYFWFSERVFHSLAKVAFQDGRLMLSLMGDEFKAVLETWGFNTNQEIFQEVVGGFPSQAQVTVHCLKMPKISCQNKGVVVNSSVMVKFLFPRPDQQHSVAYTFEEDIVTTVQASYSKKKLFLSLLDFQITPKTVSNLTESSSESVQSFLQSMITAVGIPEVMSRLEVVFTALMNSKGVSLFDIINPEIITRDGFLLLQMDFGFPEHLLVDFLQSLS
Briefly: RTA assay in 95% human serum (in vitro radioactive assay of CETP-catalyzed CE and TG transfer, endogenous CETP). Type of experiment: biochemical. The protocol: In Vitro Radioactive Assays of CETP-Catalyzed CE and TG Transfer (RTA Assay)
Reagents and sources are: [3H] cholesteryl oleate (GE #TRK.886), [3H] Triolein (Perkin-Elmer NET-431), Butylated hydroxyl toluene (Aldrich, #D4740-4), DOPC (Sigma, # P6354), Sodium Bromide (Fisher scientific #S255-500), PEG 8000 (Fisher, #BP233-1), and human HDL (Intracel Corp #RP-036).
An in vitro assay for determining IC50's to identify compounds that inhibit CETP transfer activity is performed based on a modification of a published method (Morton and Zilversmit, (1981) A plasma inhibitor of triglyceride and cholesteryl ester transfer activities, J. Biol. Chem. 256(23), 11992-11995). The ability of inhibitors to alter CETP activity is performed using two different assays: one using recombinant CETP and one using an endogenous plasma source of CETP. Both assays measure the transfer of [3H] cholesteryl oleate or [3H] triolein from exogenous LDL to HDL.
Radiolabeled donor particles are generated by first combining 100 μl of 200 μM butylated hydroxyl toluene in CHCl3, 216 μL of 21.57 mM DOPC in EtOH, and either 500 μCi [3H]-triolein (Perkin Elmer #NET-431) or 500 μCi [3H]-cholesteryl oleate (GE #TRK886) in a glass tube. Reagents are mixed, dried under nitrogen, and then resuspended in 2 mL of 50 mM Tris, 27 μM EDTA at pH 7.4. After a brief vortex, the solution is sonicated until clear and mixed with 20 mL of fresh human serum. The mixture is incubated overnight at 37° C. The [3H] labeled LDL substrate is separated at 1.063 g/ml density by sequential ultracentrifugal flotation in NaBr according to the method of Havel, Eder, et al., 1955, and Chapman, Goldstein, et al., 1981. Once isolated the particles are dialyzed 3× in CETP buffer (50 mM Tris, pH 7.4, 100 mM NaCl, 1 mM EDTA). Human HDL is purchased from Intracel and used as the acceptor particles.
Transfer assays are performed in a 96-well v-bottom polypropylene plate. For the RTA using recombinant CETP (2% RTA), an assay cocktail is prepared with the final concentrations 128 μg/mL HDL, 20 nM rCETP, 2% human serum, and 1×CETP buffer. 1 μL of each test compound diluted in DMSO is added to 47 μL of assay cocktail per well and incubated at 37° C. for 1 hour. To initiate the transfer reaction, 2 μL radiolabeled LDL is added. After an additional 60 min of incubation at 37° C., the transfer action is terminated by precipitation of LDL with an equal volume of 20% WN PEG 8000. The plates are centrifuged at 2000 rpm for 30 minutes at 4° C. A 40 μL aliquot of the HDL-containing supernatant is transferred to a Packard Optiplate™ with 200 μL of MicroScint™ 20. After mixing, plates are counted by liquid scintillation. Counts present in the supernatant for blanks (wells containing only HDL acceptor, CETP buffer and DMSO) are subtracted from those containing test compounds and used to correct for non-specific transfer.
For the transfer assay using endogenous CETP from serum (95% RTA), the same procedure is used except that human serum is added such that a final concentration of serum of 95% of the total assay volume is achieved, yielding a concentration of approximately 15 nM endogenous CETP in the assay. This is then combined with HDL and CETP buffer and the reaction proceeds as above and is terminated as described.
Comparison of the counts of samples with inhibitors to an uninhibited (DMSO only) positive control yield a percent inhibition. A plot of percent inhibition vs. log of inhibitor concentration, fit to a Sigmoidal 4 parameter equation is used to calculate IC50.
Starting materials are commercially available or are made using known procedures or as shown below. The examples may be synthesized according to the general schemes provided below and by using the synthetic intermediates that are described. The data reported for the examples below were obtained using the RTA assay in 95% human serum.

Where [1] appears, read: read-out: IC50 (nM) RTA with 95% HS.

The structures appear in SMILES notation. Like-named read-outs stand apart in the source and are kept apart here.

Usually IC50 stands for the concentration at which inhibition is half-maximal. For the molecule `COc1ncc(-c2c(C)cc(C(=O)O)cc2C)cc1-c1ccc(C(F)(F)F)cc1CC1=NO[C@H](c2cc(C(F)(F)F)cc(C(F)(F)F)c2)[C@@H]1C` [Example 13, 4-(5-(2-(((4R,5S)-5-(3,5-bis(trifluoromethyl)phenyl)-4-methyl-4,5-dihydroisoxazol-3-yl)methyl)-4-(trifluoromethyl)phenyl)-6-methoxypyridin-3-yl)-3,5-dimethylbenzoic acid], the IC50 under setting [1] is 343 nM. Same read-out and setting: for `COc1ccc(-c2ccc(C(=O)O)cc2C)cc1-c1cnc(C(F)(F)F)cc1CC1=NO[C@H](c2cc(C(F)(F)F)cc(C(F)(F)F)c2)C1` [Example 8, (S)-3′-[4-({5-[3,5-bis(trifluoromethyl)phenyl]-4,5-dihydroisoxazol-3-yl}methyl)-6-(trifluoromethyl)pyridin-3-yl]-4′-methoxy-2-methylbiphenyl-4-carboxylic acid] the value was 1070 nM; for `COc1ncc(-c2ccc(C(=O)O)cc2C)cc1-c1ccc(C(F)(F)F)nc1CC1=NO[C@H](c2cc(C(F)(F)F)cc(C(F)(F)F)c2)C1` [Example 10, (S)-4-[2′-({5-[3,5-bis(trifluoromethyl)phenyl]-4,5-dihydroisoxazol-3-yl}methyl)-2-methoxy-6′-(trifluoromethyl)-3,3′-bipyridin-5-yl]-3-methylbenzoic acid], 400 nM; for `COc1ncc(-c2ccc(C(=O)O)cc2C)cc1-c1ccc(C(F)(F)F)cc1CC1=NO[C@H](c2cc(C(F)(F)F)cc(C(F)(F)F)c2)C1` [Example 6, 4-{5-[2-({(5S)-5-[3,5-bis(trifluoromethyl)phenyl]-4,5-dihydroisoxazol-3-yl}methyl)-4-(trifluoromethyl)phenyl]-6-methoxypyridin-3-yl}-3-methylbenzoic acid], 537 nM.

As for `COc1ccc(-c2ccc(C(=O)O)cc2C)cc1-c1ccc(C(F)(F)F)cc1CC1=NO[C@H](c2cc(C(F)(F)F)cc(C(F)(F)F)c2)[C@@H]1C` [Example 3B, 2″-(((4R,5S)-5-(3,5-bis(trifluoromethyl)phenyl)-4-methyl-4,5-dihydroisoxazol-3-yl)methyl)-4′-methoxy-2-methyl-4″-(trifluoromethyl)-[1,1′:3′,1″-terphenyl]-4-carboxylic acid], under “read-out: IC50 RTA (95% HS)”, the IC50 turned out to be 293 nM. Regarding `COc1ccc(-c2ccc(C(=O)O)cc2C)cc1-c1ccc(C(F)(F)F)cc1CC1=NO[C@@H](c2cc(C(F)(F)F)cc(C(F)(F)F)c2)[C@H]1C` [Example 3A, 2″-(((4S,5R)-5-(3,5-bis(trifluoromethyl)phenyl)-4-methyl-4,5-dihydroisoxazol-3-yl)methyl)-4′-methoxy-2-methyl-4″-(trifluoromethyl)-[1,1′:3′,1″-terphenyl]-4-carboxylic acid], the IC50 (read-out: IC50 RTA (95% HS)) is greater than 10000 nM. The same measure, in the same setting: next, `COc1cc(F)c(-c2ccc(C(=O)O)cc2C)cc1-c1ccc(C(F)(F)F)cc1CC1=NO[C@@H](c2cc(C(F)(F)F)cc(C(F)(F)F)c2)C1` [Example 1B, (R)-2″-((5-(3,5-bis(trifluoromethyl)phenyl)-4,5-dihydroisoxazol-3-yl)methyl)-6′-fluoro-4′-methoxy-2-methyl-4″-(trifluoromethyl)-[1,1′:3′,1″-terphenyl]-4-carboxylic acid]: 1600 nM. As for `COc1cc(F)c(-c2ccc(C(=O)O)cc2C)cc1-c1ccc(C(F)(F)F)cc1CC1=NO[C@H](c2cc(C(F)(F)F)cc(C(F)(F)F)c2)C1` [Example 1A, (S)-2″-((5-(3,5-bis(trifluoromethyl)phenyl)-4,5-dihydroisoxazol-3-yl)methyl)-6′-fluoro-4′-methoxy-2-methyl-4″-(trifluoromethyl)-[1,1′:3′,1″-terphenyl]-4-carboxylic acid], for the setting “read-out: IC50 RTA (95% HS)”, the IC50 amounted to 37 nM. As for `COc1cc(F)c(-c2ccc(-c3n[nH]c(=O)o3)cc2C)cc1-c1ccc(C(F)(F)F)cc1CC1=NO[C@H](c2cc(C(F)(F)F)cc(C(F)(F)F)c2)C1` [Example 2, (S)-5-(2″-((5-(3,5-bis(trifluoromethyl)phenyl)-4,5-dihydroisoxazol-3-yl)methyl)-6′-fluoro-4′-methoxy-2-methyl-4″-(trifluoromethyl)-[1,1′:3′,1″-terphenyl]-4-yl)-1,3,4-oxadiazol-2(3H)-one], the IC50 (read-out: IC50 RTA (95% HS)) amounted to 167 nM. `COc1ccc(-c2cc(-c3ccc(C(=O)O)cc3C)ccc2OC)c(CC2=NO[C@H](c3cc(C(F)(F)F)cc(C(F)(F)F)c3)C2)n1` [Example 11, (S)-3′-[2-({5-[3,5-bis(trifluoromethyl)phenyl]-4,5-dihydroisoxazol-3-yl}methyl)-6-methoxypyridin-3-yl]-4′-methoxy-2-methylbiphenyl-4-carboxylic acid]: the IC50 under setting [1] amounted to 176 nM. On the same count and under the same terms, for `COc1cc(F)c(C(C)C)cc1-c1ccc(C(F)(F)F)cc1CC1=NO[C@H](c2cc(C(F)(F)F)cc(C(F)(F)F)c2)C1` [Example 4, (5S)-5-[3,5-bis(trifluoromethyl)phenyl]-3-{[4′-fluoro-2′-methoxy-5′-(1-methylethyl)-4-(trifluoromethyl)biphenyl-2-yl]methyl}-4,5-dihydroisoxazole] the value was 1290 nM; for `COc1ncc(-c2ccc(C(=O)O)cc2C)cc1-c1ccc(C(F)(F)F)cc1CC1=NO[C@H](c2cc(C(F)(F)F)cc(C(F)(F)F)c2)[C@@H]1C` [Example 14, 4-(5-(2-(((4R,5S)-5-(3,5-bis(trifluoromethyl)phenyl)-4-methyl-4,5-dihydroisoxazol-3-yl)methyl)-4-(trifluoromethyl)phenyl)-6-methoxypyridin-3-yl)-3-methylbenzoic acid], 169 nM.

Turning to `COc1ncc(-c2ccc(C(=O)O)cc2C)cc1-c1ccc(C(F)(F)F)cc1CC1=NO[C@H](c2ccnc(C(F)(F)F)c2)C1` [Example 9, (S)-4-{6-methoxy-5-[4-(trifluoromethyl)-2-({5-[2-(trifluoromethyl)pyridin-4-yl]-4,5-dihydroisoxazol-3-yl}methyl)phenyl]pyridin-3-yl}-3-methylbenzoic acid], under setting [1], the IC50 came out at 6500 nM. On to `COc1ncc(-c2ccc(C(=O)O)cc2C)cc1-c1cnc(C(F)(F)F)cc1CC1=NO[C@H](c2cc(C(F)(F)F)cc(C(F)(F)F)c2)C1` [Example 7, (S)-4-[4′-({5-[3,5-bis(trifluoromethyl)phenyl]-4,5-dihydroisoxazol-3-yl}methyl)-2-methoxy-6′-(trifluoromethyl)-3,3′-bipyridin-5-yl]-3-methylbenzoic acid], for which the IC50 under setting [1] was determined as 4970 nM.

As for `COc1ccc(-c2cc(-c3ccc(C(=O)O)cc3C)cnc2OC)c(CC2=NO[C@H](c3cc(C(F)(F)F)cc(C(F)(F)F)c3)C2)n1` [Example 12, (S)-4-[2′-({5-[3,5-bis(trifluoromethyl)phenyl]-4,5-dihydroisoxazol-3-yl}methyl)-2,6′-dimethoxy-3,3′-bipyridin-5-yl]-3-methylbenzoic acid], the IC50 under setting [1] stood at 880 nM.

The record behind these values is patent US10011572B2, “Monocyclic isoxazolines as inhibitors of cholesterol ester transfer protein” (Merck Sharp & Dohme Corp., priority 2014, dated 2018).
